Laboratory results published in patent US20010034352A1, “Piperidine-4 sulphonamide compounds” (priority 2000, published 2001).

How the values were obtained:
Type in all cases: cell-based
cGMP in rat aortic rings = assay: Assessment of aortic production of cGMP stimulated by ACh in the presence of LNA (radioimmunoassay); conditions: compound at 3×10^−9 M, 30-minute incubation, ACh 10^−5 M 1 minute, LNA 3×10^−6 M, isobutylmethylxanthine 10^−5 M
Experimental: Involvement of the NO Route in the Vascular Protective Effects Detected: Assessment of Aortic Production of cGMP
By diffusing to the smooth muscle cells, the NO produced by the endothelial cells activates soluble guanylate cyclase, which brings about an increase in cyclic GMP which is responsible for relaxation.
The rat aortic rings are prepared as previously. Assessment is made of the effects of a 30-minute incubation of the compounds of the invention at different concentrations on the production of cGMP stimulated by ACh (10^−5 M—1 minute) in the presence of LNA (3×10^−6 M). The experiments are carried out in the presence of isobutylmethylxanthine (10^−5 M) in order to avoid degradation of the cGMP by phosphodiesterases. The rings are frozen in liquid nitrogen and maintained at −80° C. until the assay is carried out. The cGMP content is assessed by radioimmunoassay and expressed in relation to the amount of protein contained in the tissue (assay by the Bradford method).

[1] = tested on: aortic rings of New Zealand rabbits; assay: Vascular protective effects with respect to endothelial dysfunction induced by a system generating O2^− (XO-Hypo), ACh relaxation of aortic rings; conditions: compound at 3×10^−9 M; rabbit aortic rings; XO 3 mU/ml, Hypo 10^−4 M; difference between percentages of maximum ACh relaxation in presence or absence of product
Experimental: the second model consists of inducing oxidative stress in vitro using an enzymatic system that generates O2^− (xanthine oxidase —XO and hypoxanthine—Hypo).
The thoracic aorta of a Wistar rat (325-375 g), anaesthetised by the intraperitoneal route using sodium pentobarbital (30 mg/kg), is removed and dissected into rings of 3 mm in length. Each ring is suspended from an isometric tension sensor connected to a recording system and the initial tension applied is 2.5 g. The physiological solution used, which is thermostatically maintained at 37° C., and oxygenated (95% O2+5% CO2), comprises (in mM): NaCl 112.0, KCl 5.0, CaCl2 2.5, KH2PO4 1.0, MgSO4 1.2, NaHCO3 25.0, glucose 11.5, Ca-EDTA 0.016.
(§1) After a 90-minute stabilisation period, the preparations are contracted using phenylephrine (PHE 10^−6 M) and relaxed by adding 10^−5 M of acetylcholine in order to verify the 10 integrity of the endothelial layer. If that is confirmed, the preparations are rinsed and a concentration of the test product (or its solvent) is added to the medium, followed by 3.10^−7 M of N^G-nitro-L-arginine (LNA). The preparations are again contracted using phenylephrine and, after 30 minutes, the relaxations due to acetylcholine (ACh—10^−8M to 10^−5 M) are assessed in the presence of indomethacin (10^−5M).
(§2) The relaxation values are expressed as a percentage relative to the maximum contraction caused by PHE. […]

[2] = tested on: thoracic aorta rings of a Wistar rat; assay: Vascular protective effects with respect to endothelial dysfunction induced by an inhibitor of NOS (LNA), ACh relaxation of aortic rings; conditions: compound at 3×10^−9 M, LNA 3.10^−7 M, difference between percentages of maximum ACh relaxation in presence or absence of product
Description: Under standard in vitro conditions, relaxation of aortic rings caused by acetylcholine (ACh), which relaxation is totally dependent upon the presence of endothelium, reflects the production of NO (stimulated by ACh), which by diffusing to smooth muscle cells brings about arterial relaxation (Nature, 1980, 288, 373).
the first model consists of inducing inhibition of the relaxation due to ACh by blocking the enzymatic activity (endothelial NOS) responsible for the production of NO.
Vascular Protective Effects with Respect to Endothelial Dysfunction Induced by an Inhibitor of NOS
The thoracic aorta of a Wistar rat (325-375 g), anaesthetised by the intraperitoneal route using sodium pentobarbital (30 mg/kg), is removed and dissected into rings of 3 mm in length. […]
as §1, with “If that is confirmed, the preparations are rinsed and a concentration of the test product (or its solvent) is added to the medium, followed by 3.10^−7 M of N^G-nitro-L-arginine (LNA).” left out
as §2

For `O=S(=O)(NC1CCN(CCc2coc3ccccc23)CC1)c1cccc2cnccc12` [Example 8, N-{1-[2-(Benzofuran-3-yl)ethyl]-4-piperidyl}-5-isoquinolinesulphonamide], the “increase of the production of cGMP stimulated by ACh in the presence of LNA” value (cGMP in rat aortic rings) was 142.7%, the “inhibition of the endothelial dysfunction induced by the XO-Hypo combination” value [1] was 28.3% and the “inhibition of the endothelial dysfunction induced by LNA” value [2] was 23%.
